Patent US12479847B2 (DANA-FARBER CANCER INSTITUTE, INC., priority 2019, dated 2025)

How the values were obtained:
Test in all cases: KINOMEscan (ScanMAX) kinase profiling
Format in all cases: binding
[1] = target: T1, panel of 468 kinases (Homo sapiens, UniProt P10721, V559D/V654A); settings: KIT(V559D,V654A); 1 μM; read-out: % control
T1 construct: purchased KINOMEscan (ScanMAX) service

[2] = target: T2, panel of 468 kinases (Homo sapiens, UniProt P54646); settings: AMPK-alpha2; 1 μM; read-out: % control
T2 construct: purchased KINOMEscan (ScanMAX) service
T2 sequence (P54646 whole entry): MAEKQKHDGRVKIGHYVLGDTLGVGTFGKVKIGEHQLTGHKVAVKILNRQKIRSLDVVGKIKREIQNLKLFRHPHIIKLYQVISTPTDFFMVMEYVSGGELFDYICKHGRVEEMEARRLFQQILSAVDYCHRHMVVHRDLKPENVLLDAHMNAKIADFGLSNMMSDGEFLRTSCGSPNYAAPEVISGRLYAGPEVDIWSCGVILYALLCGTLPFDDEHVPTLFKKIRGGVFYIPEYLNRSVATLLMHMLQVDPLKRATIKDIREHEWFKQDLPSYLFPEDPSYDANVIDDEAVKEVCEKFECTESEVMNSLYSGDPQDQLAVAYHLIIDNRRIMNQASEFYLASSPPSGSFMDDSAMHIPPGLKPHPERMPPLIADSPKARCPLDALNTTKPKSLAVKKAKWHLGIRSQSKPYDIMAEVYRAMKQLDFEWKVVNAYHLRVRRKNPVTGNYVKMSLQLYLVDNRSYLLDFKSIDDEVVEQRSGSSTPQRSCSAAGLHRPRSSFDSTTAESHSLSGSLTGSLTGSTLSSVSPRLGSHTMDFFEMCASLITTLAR

[3] = target: T3, panel of 468 kinases (Homo sapiens, UniProt Q9BVS4); settings: RIOK2; 1 μM; read-out: % control
T3 construct: purchased KINOMEscan (ScanMAX) service
T3 sequence (Q9BVS4 whole entry): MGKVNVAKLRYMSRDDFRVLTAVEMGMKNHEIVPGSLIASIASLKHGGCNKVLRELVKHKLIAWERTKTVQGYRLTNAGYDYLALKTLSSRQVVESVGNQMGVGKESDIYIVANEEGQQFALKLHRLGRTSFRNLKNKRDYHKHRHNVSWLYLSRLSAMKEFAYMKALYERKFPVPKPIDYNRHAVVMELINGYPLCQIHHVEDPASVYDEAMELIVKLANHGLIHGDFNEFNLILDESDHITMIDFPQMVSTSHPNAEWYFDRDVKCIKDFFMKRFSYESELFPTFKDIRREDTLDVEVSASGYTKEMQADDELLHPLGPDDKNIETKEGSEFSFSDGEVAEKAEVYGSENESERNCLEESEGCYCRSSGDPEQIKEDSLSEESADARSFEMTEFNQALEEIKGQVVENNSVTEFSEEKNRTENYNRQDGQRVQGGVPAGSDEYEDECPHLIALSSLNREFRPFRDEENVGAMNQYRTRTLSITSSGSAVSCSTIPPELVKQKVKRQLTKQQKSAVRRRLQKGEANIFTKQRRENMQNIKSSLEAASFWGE

[4] = target: T4, panel of 468 kinases (Homo sapiens, UniProt P16591); settings: FER; 1 μM; read-out: % control
T4 construct: purchased KINOMEscan (ScanMAX) service
T4 sequence (P16591 whole entry): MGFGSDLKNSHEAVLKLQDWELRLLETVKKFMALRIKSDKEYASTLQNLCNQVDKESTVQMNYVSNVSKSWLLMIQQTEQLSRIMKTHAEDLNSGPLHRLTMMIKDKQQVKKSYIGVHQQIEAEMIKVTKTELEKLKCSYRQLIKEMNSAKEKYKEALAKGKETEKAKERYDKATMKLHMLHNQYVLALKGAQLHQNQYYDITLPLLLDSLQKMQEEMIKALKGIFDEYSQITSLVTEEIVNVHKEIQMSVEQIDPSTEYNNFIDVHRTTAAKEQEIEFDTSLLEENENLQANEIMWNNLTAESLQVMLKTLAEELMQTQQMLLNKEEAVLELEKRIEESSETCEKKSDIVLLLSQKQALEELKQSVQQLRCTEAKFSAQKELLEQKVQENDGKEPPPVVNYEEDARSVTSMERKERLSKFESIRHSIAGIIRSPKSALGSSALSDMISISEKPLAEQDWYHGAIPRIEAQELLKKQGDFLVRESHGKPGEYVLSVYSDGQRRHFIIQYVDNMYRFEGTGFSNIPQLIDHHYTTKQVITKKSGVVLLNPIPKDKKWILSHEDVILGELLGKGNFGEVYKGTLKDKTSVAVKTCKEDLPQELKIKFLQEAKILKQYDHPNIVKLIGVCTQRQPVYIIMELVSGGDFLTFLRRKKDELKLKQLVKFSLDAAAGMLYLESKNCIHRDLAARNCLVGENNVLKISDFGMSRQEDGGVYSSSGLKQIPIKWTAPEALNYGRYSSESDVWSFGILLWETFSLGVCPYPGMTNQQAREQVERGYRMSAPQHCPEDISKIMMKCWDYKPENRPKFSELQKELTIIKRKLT

[5] = target: T5, panel of 468 kinases (Homo sapiens, UniProt P09769); settings: FGR; 1 μM; read-out: % control
T5 construct: purchased KINOMEscan (ScanMAX) service
T5 sequence (P09769 whole entry): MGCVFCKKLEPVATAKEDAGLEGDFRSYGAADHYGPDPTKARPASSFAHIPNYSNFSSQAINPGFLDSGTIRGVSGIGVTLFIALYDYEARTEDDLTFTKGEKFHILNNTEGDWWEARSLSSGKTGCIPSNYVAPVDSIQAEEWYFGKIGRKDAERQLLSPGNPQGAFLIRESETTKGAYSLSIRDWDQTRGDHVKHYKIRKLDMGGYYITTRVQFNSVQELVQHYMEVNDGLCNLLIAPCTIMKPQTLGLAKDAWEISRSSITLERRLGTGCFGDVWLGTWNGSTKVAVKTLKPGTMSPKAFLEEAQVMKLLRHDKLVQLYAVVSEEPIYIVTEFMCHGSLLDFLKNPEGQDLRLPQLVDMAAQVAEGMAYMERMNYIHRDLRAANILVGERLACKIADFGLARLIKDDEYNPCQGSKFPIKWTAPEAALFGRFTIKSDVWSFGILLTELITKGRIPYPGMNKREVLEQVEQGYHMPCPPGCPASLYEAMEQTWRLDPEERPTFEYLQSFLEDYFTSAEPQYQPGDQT

[6] = target: T6, panel of 468 kinases (Homo sapiens, UniProt Q6P2M8); settings: CAMK1B; 1 μM; read-out: % control
T6 construct: purchased KINOMEscan (ScanMAX) service
T6 sequence (Q6P2M8 whole entry): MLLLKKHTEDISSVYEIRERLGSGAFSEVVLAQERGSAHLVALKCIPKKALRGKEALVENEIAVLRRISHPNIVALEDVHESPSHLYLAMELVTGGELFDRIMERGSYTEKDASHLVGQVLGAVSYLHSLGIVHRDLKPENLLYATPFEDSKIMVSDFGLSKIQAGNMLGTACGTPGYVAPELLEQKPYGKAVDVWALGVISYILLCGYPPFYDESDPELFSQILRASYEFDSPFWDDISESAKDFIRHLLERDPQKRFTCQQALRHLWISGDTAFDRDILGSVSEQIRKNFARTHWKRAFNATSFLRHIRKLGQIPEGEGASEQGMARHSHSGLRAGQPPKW

[7] = target: T7, panel of 468 kinases (Homo sapiens, UniProt P24941); settings: CDK2; 1 μM; read-out: % control
T7 construct: purchased KINOMEscan (ScanMAX) service

[8] = target: T8, panel of 468 kinases (Homo sapiens, UniProt P78362); settings: SRPK2; 1 μM; read-out: % control
T8 construct: purchased KINOMEscan (ScanMAX) service
T8 sequence (P78362 whole entry): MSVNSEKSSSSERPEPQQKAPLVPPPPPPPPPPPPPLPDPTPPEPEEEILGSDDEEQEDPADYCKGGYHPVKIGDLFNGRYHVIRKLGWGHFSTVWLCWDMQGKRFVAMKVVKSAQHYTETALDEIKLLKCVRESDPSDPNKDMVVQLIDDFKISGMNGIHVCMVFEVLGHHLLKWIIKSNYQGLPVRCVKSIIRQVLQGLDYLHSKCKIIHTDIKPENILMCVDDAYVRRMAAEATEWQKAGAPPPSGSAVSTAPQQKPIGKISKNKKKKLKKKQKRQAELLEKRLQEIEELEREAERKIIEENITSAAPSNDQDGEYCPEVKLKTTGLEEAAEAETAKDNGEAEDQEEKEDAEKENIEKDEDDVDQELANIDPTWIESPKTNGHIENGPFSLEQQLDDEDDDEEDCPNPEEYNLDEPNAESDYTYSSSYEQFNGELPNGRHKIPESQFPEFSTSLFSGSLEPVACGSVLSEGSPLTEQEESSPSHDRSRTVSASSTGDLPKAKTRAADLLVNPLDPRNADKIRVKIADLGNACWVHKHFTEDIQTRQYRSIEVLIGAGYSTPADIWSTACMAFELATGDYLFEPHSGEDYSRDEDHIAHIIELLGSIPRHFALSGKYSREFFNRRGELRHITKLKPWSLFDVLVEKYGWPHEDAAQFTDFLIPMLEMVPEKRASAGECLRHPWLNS

[9] = target: T9, panel of 468 kinases (Homo sapiens, UniProt P36888, K663Q); settings: FLT3(K663Q); 1 μM; read-out: % control
T9 construct: purchased KINOMEscan (ScanMAX) service
T9 sequence (P36888 27-993 K663Q): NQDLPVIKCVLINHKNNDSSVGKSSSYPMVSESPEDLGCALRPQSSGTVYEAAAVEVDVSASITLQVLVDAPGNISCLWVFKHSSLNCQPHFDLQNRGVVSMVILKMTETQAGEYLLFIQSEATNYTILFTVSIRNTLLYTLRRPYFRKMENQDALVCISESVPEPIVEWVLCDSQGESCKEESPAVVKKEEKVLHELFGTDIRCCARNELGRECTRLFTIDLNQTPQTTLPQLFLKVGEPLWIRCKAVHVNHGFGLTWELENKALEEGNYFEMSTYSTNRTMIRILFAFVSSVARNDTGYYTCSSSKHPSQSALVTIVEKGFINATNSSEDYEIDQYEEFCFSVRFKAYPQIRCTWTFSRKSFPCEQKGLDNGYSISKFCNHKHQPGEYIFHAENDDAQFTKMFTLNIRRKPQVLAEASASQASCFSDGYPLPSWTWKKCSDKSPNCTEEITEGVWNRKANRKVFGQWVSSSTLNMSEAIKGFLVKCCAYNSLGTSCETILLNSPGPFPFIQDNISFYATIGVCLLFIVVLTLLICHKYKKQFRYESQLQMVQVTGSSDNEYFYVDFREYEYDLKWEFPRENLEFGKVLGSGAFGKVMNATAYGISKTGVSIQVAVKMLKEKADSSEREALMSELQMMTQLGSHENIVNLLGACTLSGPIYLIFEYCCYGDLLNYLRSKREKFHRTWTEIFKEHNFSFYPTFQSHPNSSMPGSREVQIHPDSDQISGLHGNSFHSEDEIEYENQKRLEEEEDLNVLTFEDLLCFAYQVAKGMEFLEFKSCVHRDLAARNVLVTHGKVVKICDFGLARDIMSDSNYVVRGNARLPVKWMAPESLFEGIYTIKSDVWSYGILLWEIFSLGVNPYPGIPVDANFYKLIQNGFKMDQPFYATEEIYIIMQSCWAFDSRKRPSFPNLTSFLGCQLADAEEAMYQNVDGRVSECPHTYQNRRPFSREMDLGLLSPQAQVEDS

[10] = target: T10, panel of 468 kinases (Homo sapiens, UniProt Q8IU85); settings: CAMK1D; 1 μM; read-out: % control
T10 construct: purchased KINOMEscan (ScanMAX) service
T10 sequence (Q8IU85 whole entry): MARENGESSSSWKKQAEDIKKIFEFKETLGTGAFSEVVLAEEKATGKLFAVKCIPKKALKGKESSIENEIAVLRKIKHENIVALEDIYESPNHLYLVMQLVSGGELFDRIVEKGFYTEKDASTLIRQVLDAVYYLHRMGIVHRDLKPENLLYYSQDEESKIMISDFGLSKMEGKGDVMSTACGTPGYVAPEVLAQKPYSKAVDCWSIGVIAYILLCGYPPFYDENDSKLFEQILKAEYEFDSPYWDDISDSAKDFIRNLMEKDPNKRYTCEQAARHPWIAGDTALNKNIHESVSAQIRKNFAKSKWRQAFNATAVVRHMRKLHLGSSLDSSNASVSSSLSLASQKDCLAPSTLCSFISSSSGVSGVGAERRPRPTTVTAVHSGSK

T1 sequence (P10721 26-976 V559D/V654A): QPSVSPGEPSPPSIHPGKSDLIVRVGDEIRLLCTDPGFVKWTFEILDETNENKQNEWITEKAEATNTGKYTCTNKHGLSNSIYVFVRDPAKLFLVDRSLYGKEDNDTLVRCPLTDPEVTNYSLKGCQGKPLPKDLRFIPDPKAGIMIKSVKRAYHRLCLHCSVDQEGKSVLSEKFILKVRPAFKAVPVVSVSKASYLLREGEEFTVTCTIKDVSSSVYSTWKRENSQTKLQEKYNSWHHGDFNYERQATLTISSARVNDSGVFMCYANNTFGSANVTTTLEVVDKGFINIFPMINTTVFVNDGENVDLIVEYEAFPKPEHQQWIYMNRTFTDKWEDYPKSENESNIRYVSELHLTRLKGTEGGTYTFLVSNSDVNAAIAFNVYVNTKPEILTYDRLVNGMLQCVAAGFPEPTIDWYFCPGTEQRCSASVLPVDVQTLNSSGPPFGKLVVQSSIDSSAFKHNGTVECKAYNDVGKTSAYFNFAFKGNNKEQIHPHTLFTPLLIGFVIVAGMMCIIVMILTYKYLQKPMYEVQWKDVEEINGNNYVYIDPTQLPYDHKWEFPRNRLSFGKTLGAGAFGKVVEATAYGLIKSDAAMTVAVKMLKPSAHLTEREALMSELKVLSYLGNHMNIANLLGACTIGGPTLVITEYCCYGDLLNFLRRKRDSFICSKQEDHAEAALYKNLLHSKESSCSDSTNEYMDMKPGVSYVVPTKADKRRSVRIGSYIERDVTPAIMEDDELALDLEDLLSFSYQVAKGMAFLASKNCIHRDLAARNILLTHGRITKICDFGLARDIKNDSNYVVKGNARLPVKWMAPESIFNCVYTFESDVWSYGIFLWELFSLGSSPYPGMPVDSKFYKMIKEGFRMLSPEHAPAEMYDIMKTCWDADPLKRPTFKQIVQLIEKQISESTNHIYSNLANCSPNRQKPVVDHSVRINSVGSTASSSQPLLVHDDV

| SMILES | remaining binding at 1 µM [1] | remaining binding at 1 µM [2] | remaining binding at 1 µM [3] | remaining binding at 1 µM [4] | remaining binding at 1 µM [5] | remaining binding at 1 µM [6] | remaining binding at 1 µM [7] | remaining binding at 1 µM [8] | remaining binding at 1 µM [9] | remaining binding at 1 µM [10] |
| --- | --- | --- | --- | --- | --- | --- | --- | --- | --- | --- |
| CNc1nc(Nc2ccc(C(=O)N3CCC(N4CCOCC4)CC3)c3c2OCO3)nc2[nH]cc(Cl)c12 [Compound 75, (7-((5-chloro-4-(methylamino)-7H-pyrrolo[2,3-d]pyrimidin-2-yl)amino)benzo[d][1,3]dioxol-4-yl)(4-morpholinopiperidin-1-yl)methanone] | 94% | 87% | 53% | 56% | 100% | 44% | 100% | 95% | 72% | 47% |
| CNc1nc(Nc2ccc(S(=O)(=O)N3CCC(N4CCOCC4)CC3)cc2OC)nc2[nH]cc(Cl)c12 [Compound 12, 5-chloro-N2-(2-methoxy-4-((4-morpholinopiperidin-1-yl)sulfonyl)phenyl)-N4-methyl-7H-pyrrolo[2,3-d]pyrimidine-2,4-diamine] | 100% | 82% | 94% | 44% | 100% | 95% | 100% | 100% | 100% | 96% |
| CNc1nc(Nc2ccc(P3(=O)CCN(C4CCOCC4)CC3)cc2OC)nc2[nH]cc(Cl)c12 [Compound 77, 4-(4-((5-chloro-4-(methylamino)-7H-pyrrolo[2,3-d]pyrimidin-2-yl)amino)-3-methoxyphenyl)-1-(tetrahydro-2H-pyran-4-yl)-1,4-azaphosphinane 4-oxide] | 96% | 90% | 78% | 20% | 100% | 54% | 100% | 84% | 99% | 39% |
